Reference: ChEMBL document CHEMBL5365466, “Discovery of Triazolyl Derivatives of Cucurbitacin B Targeting IGF2BP1 against Non-Small Cell Lung Cancer” (J Med Chem, 2023)
Activity calls are given as the source filed them. The calls are words filed in the database; no cut-off is given here.

Assays:
[1] = Selectivity index, ratio of IC50 for antiproliferative activity against human L02 cells to IC50 for antiproliferative activity against human HepG2 cells; format: toxicity, cell-based; conditions: L02 cells versus HepG2 cells, read-out: Ratio IC50
[2] = tested on: A549; assay: Induction of cell cycle arrest in human A549 cells assessed as accumulation of cells at S phase at 0.5 uM incubated for 24 hrs by PI staining based flow cytometric analysis (reference value: 23 %); format: functional
[3] = target: T1, Insulin-like growth factor 2 mRNA-binding protein 1 (Homo sapiens, UniProt Q9NZI8); assay: Binding affinity to human recombinant IGF2BP1 assessed as dissociation constant by microscale thermophoresis analysis
[4] = tested on: HepG2; assay: Antiproliferative activity against human HepG2 cells assessed as cell growth inhibition incubated for 72 hrs by SRB assay; format: functional, cell-based; conditions: HepG2, 72 h
[5] = target: T1, Insulin-like growth factor 2 mRNA-binding protein 1; assay: Binding affinity to IGF2BP1 in human A549 cells assessed as protein stabilization at 1 uM at 46 degreeC incubated for 2 hrs by CETSA; format: cell-based
[6] = Selectivity index, ratio of IC50 for antiproliferative activity against human L02 cells to IC50 for antiproliferative activity against human A549 cells; format: toxicity, cell-based; conditions: L02 cells versus A549 cells, read-out: Ratio IC50
[7] = tested on: A549; assay: Induction of apoptosis in human A549 cells incubated for 48 hrs by Annexin V-FITC/PI staining based flow cytometric analysis; format: functional, cell-based
[8] = target: T1, Insulin-like growth factor 2 mRNA-binding protein 1; assay: Binding affinity to His-tagged recombinant IGF2BP1 (unknown origin) assessed as dissociation constant by surface plasmon resonance assay
[9] = tested on: A549; assay: Induction of autophagy in human A549 cells assessed as upregulation of Beclin-1 expression at 0.1 to 0.5 uM incubated for 48 hrs by Western blotting analysis; format: functional, cell-based; conditions: dose 0.1-0.5 µM
[10] = Antiproliferative activity against human L02 cells assessed as cell growth inhibition at 1 uM incubated for 72 hrs by SRB assay; format: toxicity, cell-based
[11] = tested on: HeLa; assay: Antiproliferative activity against human HeLa cells assessed as cell growth inhibition incubated for 72 hrs by SRB assay; format: functional, cell-based
[12] = tested on: A549; assay: Induction of cell cycle arrest in human A549 cells assessed as accumulation of cells at G1 phase at 0.2 uM incubated for 24 hrs by PI staining based flow cytometric analysis (reference value: 65.6 %); format: functional
[13] = tested on: A549; assay: Induction of apoptosis in human A549 cells assessed as increase in PARP cleavage incubated for 48 hrs by Western blotting analysis; format: functional, cell-based
[14] = tested on: A549; assay: Induction of cell cycle arrest in human A549 cells assessed as accumulation of cells at G2 phase at 0.2 uM incubated for 24 hrs by PI staining based flow cytometric analysis (reference value: 9.26 %); format: functional
[15] = Selectivity index, ratio of IC50 for antiproliferative activity against human L02 cells to IC50 for antiproliferative activity against human HCT-116 cells; format: toxicity, cell-based; conditions: L02 cells versus HCT-116 cells, read-out: Ratio IC50
[16] = tested on: A549; assay: Antitumor activity against human A549 cells xenografted in BALB/c mouse assessed as reduction in Ki67 expression in tumor at 0.5 mg/kg,ip administrated for 21 days by immunohistochemical analysis; format: functional, organism-based; conditions: time 21.0 day
[17] = tested on: MCF7; assay: Antiproliferative activity against human MCF7 cells assessed as cell growth inhibition incubated for 72 hrs by SRB assay; format: functional, cell-based; conditions: MCF7, 72 h
[18] = tested on: A549; assay: Induction of cell cycle arrest in human A549 cells assessed as accumulation of cells at S phase at 0.1 uM incubated for 24 hrs by PI staining based flow cytometric analysis (reference value: 23 %); format: functional
[19] = tested on: A549; assay: Induction of autophagy in human A549 cells assessed as upregulation of LC3II/LC3I ratio at 0.1 to 0.5 uM incubated for 48 hrs by Western blotting analysis; format: functional, cell-based; conditions: dose 0.1-0.5 µM
[20] = tested on: A549; assay: Induction of apoptosis in human A549 cells assessed as downregulation of BCL-2 expression incubated for 48 hrs by Western blotting analysis; format: functional, cell-based
[21] = tested on: A549; assay: Antitumor activity against human A549 cells xenografted in BALB/c mouse assessed as tumor growth inhibition at 0.5 mg/kg,ip administrated for 21 days; format: functional; conditions: A549, 504 h, time 21 day, read-out: TGI
[22] = tested on: HCT-116; assay: Antiproliferative activity against human HCT-116 cells assessed as cell growth inhibition at 0.1 uM incubated for 72 hrs by SRB assay; format: functional
[23] = tested on: A549; assay: Induction of cell cycle arrest in human A549 cells assessed as accumulation of cells at G2 phase at 0.1 uM incubated for 24 hrs by PI staining based flow cytometric analysis (reference value: 9.26 %); format: functional
[24] = tested on: A549; assay: Induction of apoptosis in human A549 cells assessed as downregulation of CDK4 expression incubated for 48 hrs by Western blotting analysis; format: functional, cell-based
[25] = Antiproliferative activity against human L02 cells assessed as cell growth inhibition at 0.1 uM incubated for 72 hrs by SRB assay; format: toxicity, cell-based
[26] = tested on: A549; assay: Antitumor activity against human A549 cells xenografted in BALB/c mouse assessed as increase in nuclear pyknosis at 0.5 mg/kg,ip administrated for 21 days by hematoxylin and eosin staining based microscopic analysis; format: functional, organism-based; conditions: time 21.0 day
[27] = tested on: HCT-116; assay: Antiproliferative activity against human HCT-116 cells assessed as cell growth inhibition incubated for 72 hrs by SRB assay; format: functional, cell-based; conditions: HCT-116, 72 h
[28] = tested on: A549; assay: Antiproliferative activity against human A549 cells assessed as cell growth inhibition incubated for 72 hrs by SRB assay; format: functional, cell-based; conditions: A549, 72 h
[29] = target: T1, Insulin-like growth factor 2 mRNA-binding protein 1; assay: Binding affinity to IGF2BP1 in human A549 cells assessed as protein stabilization at 1 uM at 55 degreeC incubated for 2 hrs by CETSA; format: cell-based
[30] = tested on: A549; assay: Antitumor activity against human A549 cells xenografted in BALB/c mouse assessed as vacuole formation at 0.5 mg/kg,ip administrated for 21 days by hematoxylin and eosin staining based microscopic analysis; format: functional, organism-based; conditions: time 21.0 day
[31] = tested on: A549; assay: Antiproliferative activity against human A549 cells with IGF2BP1 knockdown assessed as cell growth inhibition incubated for 72 hrs by SRB assay; format: functional, cell-based; conditions: A549, 72 h
[32] = Selectivity index, ratio of IC50 for antiproliferative activity against human L02 cells to IC50 for antiproliferative activity against human SK-OV-3 cells
[33] = Selectivity index, ratio of IC50 for antiproliferative activity against human L02 cells to IC50 for antiproliferative activity against human MDA-MB-231 cells; format: toxicity, cell-based; conditions: L02 cells versus MDA-MB-231 cells, read-out: Ratio IC50
[34] = tested on: A549; assay: Induction of cell cycle arrest in human A549 cells assessed as accumulation of cells at G1 phase at 0.1 uM incubated for 24 hrs by PI staining based flow cytometric analysis (reference value: 65.6 %); format: functional
[35] = tested on: A549; assay: Antitumor activity against human A549 cells xenografted in BALB/c mouse assessed as increase in apoptosis at 0.5 mg/kg,ip administrated for 21 days by TUNEL staining based analysis; format: functional, organism-based; conditions: time 21.0 day
[36] = tested on: A549; assay: Induction of cell cycle arrest in human A549 cells assessed as accumulation of cells at G2 phase at 0.5 uM incubated for 24 hrs by PI staining based flow cytometric analysis (reference value: 9.26 %); format: functional
[37] = tested on: A549; assay: Induction of apoptosis in human A549 cells assessed as downregulation of BCL-xl expression incubated for 48 hrs by Western blotting analysis; format: functional, cell-based

T1 sequence (Q9NZI8 whole entry): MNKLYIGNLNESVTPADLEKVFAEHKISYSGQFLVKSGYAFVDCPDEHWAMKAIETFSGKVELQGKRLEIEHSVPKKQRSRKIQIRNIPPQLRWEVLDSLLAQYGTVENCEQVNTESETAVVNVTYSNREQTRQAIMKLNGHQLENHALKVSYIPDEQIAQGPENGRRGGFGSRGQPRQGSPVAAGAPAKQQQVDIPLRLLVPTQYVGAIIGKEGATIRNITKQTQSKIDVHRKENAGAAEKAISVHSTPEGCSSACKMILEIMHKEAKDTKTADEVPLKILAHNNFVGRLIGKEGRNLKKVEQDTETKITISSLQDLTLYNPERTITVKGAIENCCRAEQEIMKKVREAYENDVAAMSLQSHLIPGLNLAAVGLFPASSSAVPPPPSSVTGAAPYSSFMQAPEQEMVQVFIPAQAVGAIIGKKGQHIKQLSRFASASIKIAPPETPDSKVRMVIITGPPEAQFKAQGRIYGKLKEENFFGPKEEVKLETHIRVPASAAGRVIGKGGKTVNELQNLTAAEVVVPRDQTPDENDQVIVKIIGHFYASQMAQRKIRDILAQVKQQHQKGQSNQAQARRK

CC(=O)OC(C)(C)/C=C/C(=O)[C@](C)(O)[C@H]1[C@H](O)C[C@@]2(C)[C@@H]3CC=C4[C@@H](C[C@H](OC(=O)Cn5ncn(-c6ccc(F)cc6)c5=O)C(=O)C4(C)C)[C@]3(C)C(=O)C[C@]12C
selectivity ratio [1]: 1.25
Activity [2]: 8.96%
Kd [3]: 10.9 nM
IC50 [4]: 80 nM
Activity [5]: Active
selectivity ratio [6]: 11.1
Activity [7]: Dose-Dependent Effect
Kd [8]: 2.88 nM
Activity [9]: inactive
inhibition at 72 h, 1 µM [10]: 68.9%
IC50 [11]: 15 nM
Activity [12]: 63.6%
Activity [13]: Dose-Dependent Effect
Activity [14]: 16.4%
selectivity ratio [15]: 2.94
Activity [16]: Active
IC50 [17]: 56 nM
Activity [18]: 31.1%
Activity [19]: Active
Activity [20]: Dose-Dependent Effect
inhibition in vivo at 0.5 mg/kg [21]: 80%
inhibition at 0.1 µM [22]: 73.1%
Activity [23]: 10.5%
Activity [24]: Dose-Dependent Effect
inhibition at 72 h, 0.1 µM [25]: 50.5%
Activity [26]: Active
IC50 [27]: 34 nM
IC50 [28]: 9 nM
Activity [29]: Active
Activity [30]: Active
IC50 [31]: 92 nM
Ratio IC50 [32]: 1.85
selectivity ratio [33]: 2.04
Activity [34]: 57.7%
Activity [35]: Active
Activity [36]: 37.3%
Activity [37]: Dose-Dependent Effect
